# Reference: publication PMC5064002, “Sintokamide A Is a Novel Antagonist of Androgen Receptor That Uniquely Binds Activation Function-1 in Its Amino-terminal Domain” (The Journal of Biological Chemistry, 2016)
# Key:
# [1] = target: T1, progesterone receptor (PR)-β (Homo sapiens, UniProt P06401); test: Steroid receptor specificity: PRE-luciferase reporter in LNCaP cells; assay type: cell-based; details: 10 μM compound, 10 nM 4-pregnene-3,20-dione, 48 h
# T1 construct: expressed in transfected cells; host or cells: LNCaP
# T1 sequence (P06401 1-933): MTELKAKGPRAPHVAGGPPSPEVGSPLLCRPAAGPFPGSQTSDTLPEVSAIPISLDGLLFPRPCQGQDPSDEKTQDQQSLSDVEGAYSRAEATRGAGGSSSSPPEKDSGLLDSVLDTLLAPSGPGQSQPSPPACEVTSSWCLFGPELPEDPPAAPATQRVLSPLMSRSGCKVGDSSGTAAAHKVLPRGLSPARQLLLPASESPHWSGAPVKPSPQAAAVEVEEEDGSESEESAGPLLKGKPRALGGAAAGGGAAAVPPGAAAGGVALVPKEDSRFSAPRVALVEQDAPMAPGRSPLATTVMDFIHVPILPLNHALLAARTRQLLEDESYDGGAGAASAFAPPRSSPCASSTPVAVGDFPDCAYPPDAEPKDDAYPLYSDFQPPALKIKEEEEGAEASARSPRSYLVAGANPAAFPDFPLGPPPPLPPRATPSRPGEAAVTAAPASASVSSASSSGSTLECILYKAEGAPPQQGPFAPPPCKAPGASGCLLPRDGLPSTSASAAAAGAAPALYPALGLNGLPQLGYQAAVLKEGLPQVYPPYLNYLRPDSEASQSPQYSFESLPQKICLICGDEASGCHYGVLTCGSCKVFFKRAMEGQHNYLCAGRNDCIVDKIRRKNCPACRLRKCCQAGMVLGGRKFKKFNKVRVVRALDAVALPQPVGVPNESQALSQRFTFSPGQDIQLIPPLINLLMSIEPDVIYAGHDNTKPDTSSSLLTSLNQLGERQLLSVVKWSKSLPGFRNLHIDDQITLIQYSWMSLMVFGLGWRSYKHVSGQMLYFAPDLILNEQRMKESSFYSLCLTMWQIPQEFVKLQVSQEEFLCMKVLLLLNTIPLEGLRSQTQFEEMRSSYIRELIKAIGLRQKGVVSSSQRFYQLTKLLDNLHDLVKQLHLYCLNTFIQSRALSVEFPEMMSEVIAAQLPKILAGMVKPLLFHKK
# Protocol: LNCaP cells were transfected with the reporter plasmid PSA(6.1kb)-luciferase, PRE-luciferase, or GRE-luciferase and expression vector for progesterone receptor (PR)-β or glucocorticoid receptor (GR)-α in serum-free, phenol red-free medium using Lipofectin (Invitrogen). […] After 48 h of treatment, cells were lysed and analyzed for luciferase activities.
# FIGURE 1. […] A, LNCaP cells were transfected with PSA (6.1 kb)-luciferase, PRE-luciferase, or GRE-luciferase reporters and expression vector for PRβ or GRα. […] Error bars represent mean percentage of vehicle activity ±S.E. of at least three independent experiments with triplicate wells. SINT1, 10 μM; […]; ***, p < 0.001. […]. Error bars represents mean ± S.E. of three technical replicates. […] DAPI staining indicates the location of the nucleus. Scale bars, 20 μm.
# [2] = system: LNCaP xenografts; test: LNCaP CRPC xenografts in castrated mice; assay type: in vivo, NOD-SCID mice
# Protocol: Male NOD-SCID mice bearing subcutaneous LNCaP or LNCaP95 tumors were castrated when the tumor volume reached ∼100 mm^3. Seven days after castration, animals were injected intratumorally with 30 mg/kg of body weight SINT1 or a matching volume of vehicle (DMSO) every 3 days for a total of 15 days. Animal behavior and body weight were observed throughout the study period for signs of toxicity. Tumor volumes were calculated by the formula length × width × height × 0.5236. Tumors were excised 3 days after the last injection and prepared for immunohistochemistry or gene expression.
# Xenograft sections were stained with hematoxylin and eosin and for Ki67 expression by Wax it Histology Inc. Cells that were positive for Ki67 were counted in sections from three xenografts for each treatment. For PSA and AR staining, dewaxed sections were microwaved for 10 min on full power in prewarmed Antigen Unmasking Solution (pH 6; Vector Laboratories, Inc.). The endogenous peroxidase activity was blocked by incubation in 3% H2O2 for 10 min followed by incubation in Clear Vision Histostaining Blocking Solution (UniCure Lab, Inc.) for 1 h at room temperature. Sections were incubated with AR-N20 (1:500 dilution) and PSA (1:5 dilution; overnight at 4 °C) primary antibodies. Samples were then incubated for 30 min at room temperature with secondary antibodies and mounted in Permount mounting medium (SP15–100, Fisher).
# [3] = system: PC3 cells; set-up: method as in PMID 18834139; details: cited from earlier work
# [4] = target: T2, endogenous AR (Homo sapiens, UniProt P10275, T878A); test: Steroid receptor specificity: PSA(6.1kb)-luciferase reporter in LNCaP cells; assay type: cell-based; details: 10 μM compound, 1 nM R1881, 48 h
# T2 construct: endogenous in cells; host or cells: LNCaP
# T2 sequence (P10275 1-920 T878A): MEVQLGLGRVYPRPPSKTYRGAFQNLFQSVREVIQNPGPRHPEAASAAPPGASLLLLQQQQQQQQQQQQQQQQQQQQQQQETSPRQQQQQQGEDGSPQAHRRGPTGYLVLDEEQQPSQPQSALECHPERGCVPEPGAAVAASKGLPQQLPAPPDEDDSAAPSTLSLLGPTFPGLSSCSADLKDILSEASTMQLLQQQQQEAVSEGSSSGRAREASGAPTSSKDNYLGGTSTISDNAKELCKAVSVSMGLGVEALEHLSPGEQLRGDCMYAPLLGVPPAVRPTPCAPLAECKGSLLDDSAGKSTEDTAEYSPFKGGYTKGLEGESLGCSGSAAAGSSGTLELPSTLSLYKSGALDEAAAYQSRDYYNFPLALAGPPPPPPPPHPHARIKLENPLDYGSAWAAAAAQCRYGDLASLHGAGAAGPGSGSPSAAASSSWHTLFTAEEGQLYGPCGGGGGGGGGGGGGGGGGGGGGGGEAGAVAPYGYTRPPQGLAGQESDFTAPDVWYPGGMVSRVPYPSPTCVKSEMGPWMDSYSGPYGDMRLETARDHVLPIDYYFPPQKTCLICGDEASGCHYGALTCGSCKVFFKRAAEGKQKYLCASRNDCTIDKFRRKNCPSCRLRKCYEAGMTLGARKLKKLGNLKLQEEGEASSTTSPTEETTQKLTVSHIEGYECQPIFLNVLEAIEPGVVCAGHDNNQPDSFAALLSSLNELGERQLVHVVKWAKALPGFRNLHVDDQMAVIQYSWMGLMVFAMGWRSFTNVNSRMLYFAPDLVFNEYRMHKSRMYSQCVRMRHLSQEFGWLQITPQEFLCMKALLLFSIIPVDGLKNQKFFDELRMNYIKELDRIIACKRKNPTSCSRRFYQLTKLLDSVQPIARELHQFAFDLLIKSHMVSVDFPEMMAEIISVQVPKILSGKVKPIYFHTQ
smiles,measurement,setting,value
"CCC(=O)NC(CC(C)C(Cl)(Cl)Cl)C(=O)N1C(=O)C=C(OC)C1CC(C)C(Cl)Cl (centres unmarked) [SINT1, Sintokamide A]",PR transcriptional activity (PRE-luciferase),[1],did not affect
same,CRPC tumor overall growth,"[2]; castrated mice, 30 mg/kg intratumorally every 3 days, five doses, n = 8, p = 0.0495",112 ± 13%
same,animals achieving a serum PSA drop of ≥50%,[2]; day 15 vs day of first dose,six
same,number of Ki67-positive cells in harvested xenografts,[2]; immunohistochemistry,reduced
same,levels of PSA in xenografts,"[2]; immunohistochemistry, vs vehicle control",marked decreases
same,levels and cellular localization of AR protein in xenografts,"[2]; immunohistochemistry, vs vehicle-treated",similar
same,effect on PC3 cells that do not depend on AR for growth and survival,[3],no effect
same,androgen-induced activity of endogenous AR (PSA (6.1 kb)-luciferase),[4],significantly inhibited
